In ChEMBL document CHEMBL1158645, “Antitumor agents 37. The isolation and structural elucidation of isohelenol, a new antileukemic sesquiterpene lactone, and isohelenalin from Helenium microcephalum” (1979):

Test system: P388
Experiment: In vivo antitumor activity against mouse P388 lymphocytic leukemia at 12.5 mg/kg
Format: functional

For C[C@@H]1C[C@H]2OC(=O)C(CO)=C2[C@H](O)[C@]2(C)C(=O)C=C[C@@H]12 [ISOHELENOL], which T/C is on record?
Its T/C is 133%.
